The results in this text go back to patent US12391671B2, “Allosteric EGFR inhibitors and methods of use thereof” (Dana-Farber Cancer Institute, Inc., priority 2019, dated 2025).

Structures are written as SMILES. Counter-ions that a name gives are not always drawn. Like-named read-outs stand apart in the source and are kept apart here. Bounds are passed on as bounds.

In assay [1] the test system is EGFR mutant L858R Ba/F3 cells. Nature of the assay: Ba/F3 cell proliferation model (Cell Titer Glo), EGFR L858R. The assay is classed as cell-based, murine. To be noted: 72 hours. From the text: Example 26: Ba/F3 Cell Proliferation Models
The EGFR mutant L858R and L858R/T790M Ba/F3 cells have been previously described (Zhou, W., et al. Nature 462, 2009, 1070-1074). All cell lines were maintained in RPM 1640 (Cellgro; Mediatech Inc., Herndon. CA) supplemented with 10% FBS, 100 units/mL penicillin, 100 units/mL streptomycin. The EGFR I941R mutation was introduced via site directed mutagenesis using the Quick Change Site-Directed Mutagenesis kit (Stratagene; La Jolla, CA) according to the manufacturer's instructions. All constructs were confirmed by DNA sequencing. The constructs were shuttled into the retroviral vector JP1540 using the Cre-recombination system (Agilent Technologies, Santa Clara, CA). Ba/F3 cells were then infected with retrovirus per standard protocols, as described previously (Zhou, et al, Nature 2009). Stable clones were obtained by selection in puromycin (2 μg/ml).
Growth and inhibition of growth was assessed by the Cell Titer Glo® assay (Promega, Madison, WI) and was performed according to the manufacturer's instructions. The Cell Titer Glo® assay is a luminescence-based method used to determine the number of viable cells based on quantitation of the ATP present, which is directly proportional to the amount of metabolically active cells present. Ba/F3 cells of different EGFR genotypes were exposed to compounds as a single agent or in combination with 1 μg/mL cetuximab for 72 hours and the number of cells used per experiment was determined empirically as has been previously established (Zhou, et al., Nature 2009). All experimental points were set up in triplicates in 384-well plates and all experiments were repeated at least three times. […] The curves were fitted using a non-linear regression model with a sigmoidal dose response.
(In ATP-based viability assays light output follows the ATP content of the culture.)

Assay [2] deals with EGFR mutant L858R/T790M Ba/F3 cells. Nature of the assay: Ba/F3 cell proliferation model (Cell Titer Glo), EGFR L858R/T790M. It is filed as cell-based, murine. Conditions: 72 hours. Summed up: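 Retrovirally transduced Ba/F3 cells exposed 72 h to compound alone or with 1 μg/mL cetuximab, triplicate points, repeated at least three times. Viability by Cell Titer Glo luminescence (ATP); curves fitted by non-linear sigmoidal dose-response regression.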

Another assay deals with EGFR L858R/T790M (Homo sapiens (Human), UniProt P00533, L858R/T790M). Nature of the assay: HTRF-based EGFR biochemical assay (L858R/T790M). To be noted: 100 μM ATP, enzyme 0.02 nM. Summed up: (§1)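 Mutant EGFR (L858R 0.1 nM, L858R/T790M 0.02 nM) preincubated 30 min with compounds at room temperature in HEPES pH 7.0 buffer with Mg2+/Mn2+, then reacted 20 min with 1 μM biotinylated tyrosine kinase peptide and 100 μM ATP. Phosphorylation read by HTRF (Eu-cryptate anti-phosphotyrosine/streptavidin-XL665, 665/620 nm) after EDTA quench.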
Sequence of EGFR L858R/T790M (P00533 25-1210 T790M/L858R): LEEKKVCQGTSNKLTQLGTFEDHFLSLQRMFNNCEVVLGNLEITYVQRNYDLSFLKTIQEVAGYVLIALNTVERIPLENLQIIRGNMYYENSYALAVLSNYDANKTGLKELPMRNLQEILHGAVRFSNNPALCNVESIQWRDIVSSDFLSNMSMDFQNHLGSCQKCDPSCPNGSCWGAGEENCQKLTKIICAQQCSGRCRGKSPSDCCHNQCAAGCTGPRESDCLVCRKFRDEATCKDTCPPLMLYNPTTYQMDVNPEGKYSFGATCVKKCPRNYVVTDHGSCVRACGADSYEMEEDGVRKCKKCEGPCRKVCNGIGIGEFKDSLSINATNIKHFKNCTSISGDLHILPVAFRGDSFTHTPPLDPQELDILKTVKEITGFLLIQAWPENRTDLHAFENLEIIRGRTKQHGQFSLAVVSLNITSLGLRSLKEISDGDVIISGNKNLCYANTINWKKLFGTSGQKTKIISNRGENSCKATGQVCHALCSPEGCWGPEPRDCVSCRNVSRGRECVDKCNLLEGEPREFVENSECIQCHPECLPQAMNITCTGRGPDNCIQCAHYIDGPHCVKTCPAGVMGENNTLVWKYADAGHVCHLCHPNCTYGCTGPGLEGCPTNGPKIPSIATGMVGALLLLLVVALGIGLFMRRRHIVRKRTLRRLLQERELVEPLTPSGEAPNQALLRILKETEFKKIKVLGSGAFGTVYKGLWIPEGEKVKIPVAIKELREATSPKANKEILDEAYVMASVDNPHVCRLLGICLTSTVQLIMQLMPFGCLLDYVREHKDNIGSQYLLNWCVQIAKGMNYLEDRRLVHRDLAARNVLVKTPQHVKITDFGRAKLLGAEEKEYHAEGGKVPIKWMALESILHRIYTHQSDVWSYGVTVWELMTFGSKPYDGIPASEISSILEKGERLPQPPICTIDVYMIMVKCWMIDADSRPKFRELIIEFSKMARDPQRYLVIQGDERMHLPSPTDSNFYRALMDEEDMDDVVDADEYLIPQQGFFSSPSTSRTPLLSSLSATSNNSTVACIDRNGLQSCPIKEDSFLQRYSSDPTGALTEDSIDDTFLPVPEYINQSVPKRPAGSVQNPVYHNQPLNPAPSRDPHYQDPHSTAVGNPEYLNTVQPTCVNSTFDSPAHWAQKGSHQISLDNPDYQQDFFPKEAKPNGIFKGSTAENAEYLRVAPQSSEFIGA

For the next assay, the target named is EGFR L858R (Homo sapiens (Human), UniProt P00533, L858R). Nature of the assay: HTRF-based EGFR biochemical assay (L858R). To be noted: 100 μM ATP, enzyme 0.1 nM. In short, it runs like this: as §1
Sequence of EGFR L858R (P00533 25-1210 L858R): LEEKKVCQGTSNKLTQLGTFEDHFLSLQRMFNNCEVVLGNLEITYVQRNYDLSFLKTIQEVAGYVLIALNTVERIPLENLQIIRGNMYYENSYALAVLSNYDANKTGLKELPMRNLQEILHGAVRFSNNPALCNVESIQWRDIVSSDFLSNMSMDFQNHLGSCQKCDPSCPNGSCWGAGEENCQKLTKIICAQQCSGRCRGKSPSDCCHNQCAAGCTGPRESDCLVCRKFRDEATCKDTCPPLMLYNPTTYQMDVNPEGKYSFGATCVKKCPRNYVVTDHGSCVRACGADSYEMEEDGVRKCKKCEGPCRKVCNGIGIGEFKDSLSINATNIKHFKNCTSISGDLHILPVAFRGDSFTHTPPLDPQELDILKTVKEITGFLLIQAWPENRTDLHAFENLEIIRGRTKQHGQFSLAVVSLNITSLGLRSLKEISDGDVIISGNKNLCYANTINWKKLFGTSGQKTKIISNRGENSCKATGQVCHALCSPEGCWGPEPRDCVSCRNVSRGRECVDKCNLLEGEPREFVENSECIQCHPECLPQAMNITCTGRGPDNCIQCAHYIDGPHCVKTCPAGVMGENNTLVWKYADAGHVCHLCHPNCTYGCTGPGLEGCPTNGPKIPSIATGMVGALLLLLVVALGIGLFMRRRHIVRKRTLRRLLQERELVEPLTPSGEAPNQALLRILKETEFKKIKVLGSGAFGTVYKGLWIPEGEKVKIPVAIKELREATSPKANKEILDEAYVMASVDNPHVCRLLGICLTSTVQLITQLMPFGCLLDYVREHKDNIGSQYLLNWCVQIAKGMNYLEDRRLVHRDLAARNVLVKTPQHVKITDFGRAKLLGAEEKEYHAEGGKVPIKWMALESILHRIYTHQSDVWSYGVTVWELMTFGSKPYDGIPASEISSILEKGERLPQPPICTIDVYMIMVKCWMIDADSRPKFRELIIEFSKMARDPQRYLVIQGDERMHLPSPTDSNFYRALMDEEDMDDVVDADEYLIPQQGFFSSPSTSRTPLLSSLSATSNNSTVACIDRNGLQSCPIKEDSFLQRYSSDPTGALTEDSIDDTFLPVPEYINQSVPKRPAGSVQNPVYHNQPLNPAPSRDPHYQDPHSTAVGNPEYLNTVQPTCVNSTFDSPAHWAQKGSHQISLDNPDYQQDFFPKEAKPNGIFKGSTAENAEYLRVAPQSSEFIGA
Background: In TR-FRET formats the signal depends on donor and acceptor labels being close together.

Where [3] appears, read: Mus musculus, BaF3, single agent, read-out: Cell IC50 BaF3 EGFR L858R.
The mark [4] stands for this setting: in combination with 1 μg/mL cetuximab, read-out: Cell IC50 BaF3 EGFR L858R (+cetux.).
Where [5] appears, read: Mus musculus, BaF3, single agent, read-out: Cell IC50 BaF3 EGFR L858R/T790M.
Where [6] appears, read: in combination with 1 μg/mL cetuximab, read-out: Cell IC50 BaF3 EGFR L858R/T790M (+cetux.).

As for `CN1CCC(c2ccc(-c3ccc4c(c3)C(=O)N(C(c3nc5cccc(F)c5[nH]3)c3cc(F)ccc3O)C4)cc2)CC1` (centres unmarked) [Compound 020, 2-[(7-Fluoro-1H-benzimidazol-2-yl)-(5-fluoro-2-hydroxy-phenylmethyl]-6-(4-(1-methy-4-piperidyl)phenyl]isoindolin-1-one; hydrochloride], the IC50 is 1360 nM in assay [1] (setting [3]), 170 nM in assay [1] (setting [4]), 440 nM in assay [2] (setting [5]) and 6 nM in assay [2] (setting [6]).

`CN1CCC(c2ccc(-c3ccc4c(c3F)C(=O)N(C(c3nc5ccccc5[nH]3)c3cc(F)ccc3O)C4)cc2)CC1` (centres unmarked) [Compound 032, 2-[1H-benzimidazol-2-yl-(5-fluoro-2-hydroxy-phenyl)methyl]-7-fluoro-6-[4-(1-methyl-4-piperidyl)phenyl]isoindolin-1-one;hydrochloride]: the IC50 was found to be 960 nM in assay [1] (setting [3]), 50 nM in assay [1] (setting [4]), 210 nM in assay [2] (setting [5]) and 7 nM in assay [2] (setting [6]).

Take `Cc1ccc2[nH]c(C(c3cc(F)ccc3O)N3Cc4ccc(-c5ccc(C6CCN(C)CC6)cc5)cc4C3=O)nc2c1` (centres unmarked) [Compound 050, 2-[(5-fluoro-2-hydroxy-phenyl)-(5-methyl-1H-benzimidazol-2-yl)methyl]-6-[4-(1-methyl-4-piperidyl)phenyl]isoindolin-1-one; formic acid]: the IC50 on EGFR L858R/T790M was 2 nM; in assay [2] (setting [5]), 3850 nM; in assay [2] (setting [6]), 850 nM; against EGFR L858R it was 21 nM.

With `COc1cccc2[nH]c(C(c3cc(F)ccc3O)N3Cc4ccc(-c5ccc(C6CCN(C)CC6)cc5)cc4C3=O)nc12` (centres unmarked) [Compound 051], the IC50 on EGFR L858R/T790M was 1 nM; in assay [2] (setting [5]), 3920 nM; in assay [2] (setting [6]) it was 1050 nM; at EGFR L858R it was 10 nM.

Consider `Cc1cccc2[nH]c(C(c3cc(F)ccc3O)N3Cc4ccc(-c5ccc(C6CCN(C)CC6)cc5)cc4C3=O)nc12` (centres unmarked) [Compound 052, 2-[(5-fluoro-2-hydroxy-phenyl)-(4-methyl-1H-benzimidazol-2-yl)methyl]-6-[4-(1-methyl-4-piperidyl)phenyl]isoindolin-1-one; formic acid], for which the IC50 on EGFR L858R/T790M came out at 2 nM; in assay [2] (setting [5]) it was 4180 nM; in assay [2] (setting [6]), 370 nM; on EGFR L858R it was 5 nM.

Consider `CN1CCC(c2ccc(-c3ccc4c(=O)n(C(c5nc6ccccc6[nH]5)c5cc(F)ccc5O)cc(F)c4c3)cc2)CC1` (centres unmarked) [Compound 053, 2-[1H-benzimidazol-2-yl-(5-fluoro-2-hydroxy-phenyl)-methyl]-4-fluoro-6-[4-(1-methyl-4-piperidyl)phenyl]isoquinolin-1-one; hydrochloride], for which the IC50 against EGFR L858R/T790M worked out at 1 nM; in assay [2] (setting [5]), 560 nM; in assay [2] (setting [6]), 5 nM; against EGFR L858R it was 6 nM.

As for `CN1CCC(c2ccc(-c3ccc4c(F)cn(C(c5nc6ccccc6[nH]5)c5cc(F)ccc5O)c(=O)c4c3)cc2)CC1` (centres unmarked) [Compound 054, 2-[1H-benzimidazol-2-yl-(5-fluoro-2-hydroxy-phenyl)-methyl]-4-fluoro-7-[4-(1-methy-4-piperidyl)phenyl]isoquinolin-1-one], the IC50 was 0.4 nM on EGFR L858R/T790M, 1060 nM in assay [2] (setting [5]), 20 nM in assay [2] (setting [6]) and 2 nM against EGFR L858R.

As for `Cc1c(-c2ccc(C3CCN(C)CC3)cc2)ccc2ncn(C(c3nc4ccccc4[nH]3)c3cc(F)ccc3O)c(=O)c12` (centres unmarked) [Compound 055, 3-[1H-benzimidazol-2-yl-(5-fluoro-2-hydroxy-phenyl)-methyl]-5-methyl-6-[4-(1-methyl-4-piperidyl)phenyl]-quinazolin-4-one; dihydrochloride], the IC50 at EGFR L858R/T790M amounted to 1 nM; in assay [2] (setting [5]) it was 100 nM; in assay [2] (setting [6]) it was 10 nM; against EGFR L858R, 2 nM.

For the molecule `CN1CC(Oc2ccc(-c3ccc4c(c3)C(=O)N(C(c3nc5ccccc5[nH]3)c3cc(F)ccc3O)C4)cc2)C1` (centres unmarked) [Compound 056, 2-[1H-benzimidazol-2-yl-(5-fluoro-2-hydroxy-phenyl)methyl]-6-[4-(1-methylazetidin-3-yl)oxyphenyl]isoindolin-1-one;dihydrochloride], the IC50 against EGFR L858R/T790M is 8 nM; in assay [2] (setting [5]) it was 1280 nM; in assay [2] (setting [6]) it was 10 nM; at EGFR L858R, 12 nM.

As for `O=C1c2cc(-c3ccc(-c4cn[nH]c4)cc3)ccc2CN1C(c1nc2ccccc2[nH]1)c1cc(F)ccc1O` (centres unmarked) [Compound 057, 2-[1H-benzimidazol-2-yl-(5-fluoro-2-hydroxy-phenyl)-methyl]-6-[4-(1H-pyrazol-4-yl)-phenyl]isoindolin-1-one], the IC50 against EGFR L858R/T790M came out at 17 nM; in assay [2] (setting [5]), 550 nM; in assay [2] (setting [6]) it was 10 nM; against EGFR L858R, 37 nM.

For `Cn1cc(-c2ccc(-c3ccc4c(c3)C(=O)N(C(c3nc5ccccc5[nH]3)c3cc(F)ccc3O)C4)cc2)cn1` (centres unmarked) [Compound 058, 2-[1H-benzimidazol-2-yl-(5-fluoro-2-hydroxy-phenyl)-methyl]-6-[4-(1-methylpyrazol-4-yl)phenyl]isoindolin-1-one; dihydrochloride], the IC50 against EGFR L858R/T790M was 12 nM; in assay [2] (setting [5]) it was 1420 nM; in assay [2] (setting [6]), 20 nM; against EGFR L858R, 67 nM.

As to `O=C1c2cc(-c3ccc(N4CCOCC4)cc3)ccc2CN1C(c1nc2ccccc2[nH]1)c1cc(F)ccc1O` (centres unmarked) [Compound 059, 2-(1H-benzimidazol-2-yl-(5-fluoro-2-hydroxy-phenyl)-methyl]-6-(4-morpholinopheny)-isoindolin-1-one; hydrochloride], the IC50 was 13 nM at EGFR L858R/T790M, 790 nM in assay [2] (setting [5]), 10 nM in assay [2] (setting [6]) and more than 100 nM against EGFR L858R.

As to `CN1CCC(n2cc(-c3ccc4c(c3)C(=O)N(C(c3nc5ccccc5[nH]3)c3cc(F)ccc3O)C4)cn2)CC1` (centres unmarked) [Compound 060, 2-[1H-benzimidazol-2-yl-(5-fluoro-2-hydroxy-phenyl)-methyl]-6-[1-(1-methyl-4-piperidyl)pyrazol-4-yl]isoindolin-1-one; hydrochloride], the IC50 came to 18 nM against EGFR L858R/T790M, 5500 nM in assay [2] (setting [5]), 110 nM in assay [2] (setting [6]) and 27 nM against EGFR L858R.

In the case of `Nc1ccc(-c2ccc(-c3ccc4c(c3)C(=O)N(C(c3nc5ccccc5[nH]3)c3cc(F)ccc3O)C4)cc2)cn1` (centres unmarked) [Compound 061, 6-[4-(6-amino-3-pyridyl)phenyl]-2-[1H-benzimidazol-2-yl-(5-fluoro-2-hydroxy-phenyl)-methyl]isoindolin-1-one; hydrochloride], the IC50 at EGFR L858R/T790M is 11 nM; in assay [2] (setting [5]) it was 790 nM; in assay [2] (setting [6]) it was 20 nM; at EGFR L858R it was 69 nM.

Consider `O=C1c2cc(-c3ccc(C4CCNCC4)cc3)ccc2CN1C(c1nc2ccccc2[nH]1)c1cc(F)ccc1O` (centres unmarked) [Compound 062, 2-[1H-benzimidazol-2-yl-(5-fluoro-2-hydroxy-phenyl)-methyl]-6-[4-(4-piperidyl)-phenyl]isoindolin-1-one; hydrochloride], for which the IC50 against EGFR L858R/T790M turned out to be 0.7 nM; in assay [2] (setting [5]), 650 nM; in assay [2] (setting [6]) it was 20 nM; at EGFR L858R it was 3 nM.

With `CN1CCC(c2ccc(-c3ccc4c(c3F)C(=O)N(C(c3nc5c(F)cccc5[nH]3)c3cc(F)ccc3O)C4)cc2F)CC1` (centres unmarked) [Compound 081, 7-fluoro-2-[(4-fluoro-1H-benzimidazol-2-yl)-(5-fluoro-2-hydroxy-phenyl)methyl]-6-[3-fluoro-4-(1-methyl-4-piperidyl)phenyl]isoindolin-1-one; dihydrochloride], the IC50 worked out at 0.8 nM against EGFR L858R/T790M, 210 nM in assay [2] (setting [5]) and 6 nM on EGFR L858R.

Regarding `Cc1nnc(C(c2cc(F)ccc2O)N2Cc3ccc(-c4ccc(C5CCN(C)CC5)cc4)cc3C2=O)[nH]1` (centres unmarked) [Compound 089, 2-[(5-fluoro-2-hydroxy-phenyl)-(5-methyl-4H-1,2,4-triazol-3-yl)methyl]-6-[4-(1-methyl-4-piperidyl)phenyl]isoindolin-1-one;hydrochloride], the figures for the IC50 in assay [1] (setting [3]) and in assay [2] (setting [5]) were 4530 nM and 5950 nM, respectively.
